Assay results as given in the NIST ThermoML archive (doi:10.1016/j.jct.2018.02.022).
± gives the expanded uncertainty stated by the source.

Assay: xn = mol fraction of the nth substance listed
Conditions: 298.15 K, 92.3 kPa, Liquid; for viscosity: Concentric cylinders viscometry; for speed of sound: Frequency=3 MHz, Single path-length method; for mass density: Vibrating tube method

## OCCOCCOCCO [triethylene glycol] + O
x1 = 0.025
  viscosity: 1.524 ± 0.21 mPa·s
  mass density: 1023.1 ± 3.2 kg/m3
x1 = 0.0489
  viscosity: 2.329 ± 0.33 mPa·s
  mass density: 1042.58 ± 3.3 kg/m3
x1 = 0.0754
  viscosity: 3.456 ± 0.48 mPa·s
  mass density: 1059.51 ± 3.3 kg/m3
x1 = 0.0993
  viscosity: 4.677 ± 0.66 mPa·s
  mass density: 1071.33 ± 3.3 kg/m3
x1 = 0.15
  viscosity: 7.813 ± 1.1 mPa·s
  mass density: 1088.51 ± 3.3 kg/m3
x1 = 0.1993
  viscosity: 11.2 ± 1.6 mPa·s
  mass density: 1098.18 ± 3.3 kg/m3
x1 = 0.2526
  viscosity: 14.94 ± 2.1 mPa·s
  mass density: 1104.19 ± 3.3 kg/m3
x1 = 0.2998
  viscosity: 18.09 ± 2.5 mPa·s
  mass density: 1107.47 ± 3.3 kg/m3
x1 = 0.3539
  viscosity: 21.31 ± 3 mPa·s
  mass density: 1110.13 ± 3.3 kg/m3
x1 = 0.4009
  viscosity: 23.85 ± 3.3 mPa·s
  mass density: 1112.01 ± 3.3 kg/m3
x1 = 0.4492
  viscosity: 26.05 ± 3.6 mPa·s
  mass density: 1113.7 ± 3.3 kg/m3
x1 = 0.4992
  viscosity: 28.01 ± 3.9 mPa·s
  mass density: 1115.2 ± 3.3 kg/m3
x1 = 0.5484
  viscosity: 29.68 ± 4.2 mPa·s
  mass density: 1116.36 ± 3.3 kg/m3
x1 = 0.5996
  viscosity: 31.06 ± 4.4 mPa·s
  mass density: 1117.17 ± 3.3 kg/m3
x1 = 0.6506
  viscosity: 32.21 ± 4.5 mPa·s
  mass density: 1117.6 ± 3.3 kg/m3
x1 = 0.701
  viscosity: 33.32 ± 4.7 mPa·s
  mass density: 1117.76 ± 3.3 kg/m3
x1 = 0.7567
  viscosity: 34.32 ± 4.8 mPa·s
  mass density: 1117.85 ± 3.3 kg/m3
x1 = 0.8035
  viscosity: 34.99 ± 4.9 mPa·s
  mass density: 1118.05 ± 3.3 kg/m3
x1 = 0.8406
  viscosity: 35.51 ± 5 mPa·s
  mass density: 1118.38 ± 3.3 kg/m3
x1 = 0.8981
  viscosity: 35.95 ± 5 mPa·s
  mass density: 1119.14 ± 3.3 kg/m3
x1 = 0.9489
  viscosity: 36.46 ± 5.1 mPa·s
  mass density: 1119.68 ± 3.3 kg/m3
x1 = 1
  viscosity: 36.88 ± 5.2 mPa·s
  speed of sound: 1611.6 ± 2 m/s
  mass density: 1119.59 ± 3 kg/m3
x1 = 0.0101
  speed of sound: 1537.4 ± 1.8 m/s
  mass density: 1008.38 ± 3.2 kg/m3
x1 = 0.0196
  speed of sound: 1571 ± 1.8 m/s
  mass density: 1017.88 ± 3.2 kg/m3
x1 = 0.029
  speed of sound: 1600.5 ± 1.8 m/s
  mass density: 1027.04 ± 3.2 kg/m3
x1 = 0.0381
  speed of sound: 1625 ± 1.8 m/s
  mass density: 1034.7 ± 3.2 kg/m3
x1 = 0.0496
  speed of sound: 1651.4 ± 1.8 m/s
  mass density: 1043.48 ± 3.3 kg/m3
x1 = 0.0601
  speed of sound: 1671.4 ± 1.8 m/s
  mass density: 1050.7 ± 3.3 kg/m3
x1 = 0.0689
  speed of sound: 1685.1 ± 1.8 m/s
  mass density: 1056.05 ± 3.3 kg/m3
x1 = 0.0801
  speed of sound: 1699.4 ± 1.8 m/s
  mass density: 1062.2 ± 3.3 kg/m3
x1 = 0.0905
  speed of sound: 1709.8 ± 1.8 m/s
  mass density: 1067.29 ± 3.3 kg/m3
x1 = 0.0996
  speed of sound: 1716.9 ± 1.8 m/s
  mass density: 1071.33 ± 3.3 kg/m3
x1 = 0.1479
  speed of sound: 1733.4 ± 1.8 m/s
  mass density: 1087.21 ± 3.3 kg/m3
x1 = 0.2004
  speed of sound: 1729.3 ± 1.8 m/s
  mass density: 1097.63 ± 3.3 kg/m3
x1 = 0.2462
  speed of sound: 1718.8 ± 1.8 m/s
  mass density: 1103.39 ± 3.3 kg/m3
x1 = 0.3004
  speed of sound: 1704.4 ± 1.8 m/s
  mass density: 1107.79 ± 3.3 kg/m3
x1 = 0.3474
  speed of sound: 1692.1 ± 1.8 m/s
  mass density: 1110.41 ± 3.3 kg/m3
x1 = 0.3948
  speed of sound: 1680.7 ± 1.9 m/s
  mass density: 1112.33 ± 3.3 kg/m3
x1 = 0.4467
  speed of sound: 1669.6 ± 1.9 m/s
  mass density: 1113.88 ± 3.3 kg/m3
x1 = 0.5021
  speed of sound: 1659.2 ± 1.9 m/s
  mass density: 1115.13 ± 3.3 kg/m3
x1 = 0.548
  speed of sound: 1651.9 ± 1.9 m/s
  mass density: 1115.93 ± 3.3 kg/m3
x1 = 0.5923
  speed of sound: 1645.4 ± 1.9 m/s
  mass density: 1116.59 ± 3.3 kg/m3
x1 = 0.6442
  speed of sound: 1639.1 ± 1.9 m/s
  mass density: 1117.19 ± 3.3 kg/m3
x1 = 0.7095
  speed of sound: 1632.3 ± 1.9 m/s
  mass density: 1117.81 ± 3.3 kg/m3
x1 = 0.7531
  speed of sound: 1628.1 ± 1.9 m/s
  mass density: 1118.17 ± 3.3 kg/m3
x1 = 0.7859
  speed of sound: 1625.3 ± 2 m/s
  mass density: 1118.42 ± 3.3 kg/m3
x1 = 0.8387
  speed of sound: 1621.5 ± 2 m/s
  mass density: 1118.75 ± 3.3 kg/m3
x1 = 0.9031
  speed of sound: 1617 ± 2 m/s
  mass density: 1119.13 ± 3.3 kg/m3
x1 = 0.9181
  speed of sound: 1616.2 ± 2 m/s
  mass density: 1119.2 ± 3.3 kg/m3
x1 = 0.9344
  speed of sound: 1615.4 ± 2 m/s
  mass density: 1119.28 ± 3.3 kg/m3
x1 = 0.9569
  speed of sound: 1614.1 ± 2 m/s
  mass density: 1119.39 ± 3.3 kg/m3
x1 = 0.9782
  speed of sound: 1612.9 ± 2 m/s
  mass density: 1119.48 ± 3.3 kg/m3
